In ChEMBL document CHEMBL1138618, “NMDA receptor affinities of 1,2-diphenylethylamine and 1-(1,2-diphenylethyl)piperidine enantiomers and of related compounds” (Bioorg Med Chem, 2009):
pKi: −log10 of the molar value.

These molecules were tested on Glutamate NMDA receptor (assay: Displacement of [3H]MK801 from NMDA receptor in rat brain neuronal membrane). Details: not given; call rule not given here.
Format: cell membranes

Question: Which Ki does the source give for `COc1ccc2c(c1)C13CCCC[C@@H]1C(C2)NCC3` (single isomer, unassigned) here?
Answer: Not Active

Same assay, conditions: read-out: Ki

Question: How did the pKi turn out when `NCC(c1ccccc1)c1ccccc1` was run?
Answer: 3.84

Question: With `COc1ccc2c(c1)[C@]13CCCC[C@@H]1[C@H](C2)NCC3` as the molecule, how does the pKi read?
Answer: 5.77

Question: How did the pKi turn out when `C[C@@H](N)c1ccccc1` was run?
Answer: 3.18

Question: How did the pKi turn out when `C[C@H](N)c1ccccc1` was run?
Answer: 3.21

Question: How did the pKi turn out when `N[C@H](c1ccccc1)[C@H](N)c1ccccc1` was run?
Answer: 5.39

Question: How did the pKi turn out when `N[C@@H](c1ccccc1)[C@H](O)c1ccccc1` was run?
Answer: 3.85

Question: With `N[C@H](CC1CCCCC1)C1CCCCC1` as the molecule, how does the pKi read?
Answer: 3.86

Question: How did the pKi turn out when `C[C@](N)(Cc1ccccc1)c1ccccc1` was run?
Answer: 6.10

Question: `N[C@@H](Cc1ccccc1)c1ccccc1` was tested. Which pKi did it give?
Answer: 6.15

Question: `C[C@@](N)(Cc1ccccc1)c1ccccc1` was tested. Which pKi did it give?
Answer: 5.09

Question: `N[C@H](c1ccccc1)[C@@H](O)c1ccccc1` was tested. Which pKi did it give?
Answer: 4.80

Question: `c1ccc(C[C@H](c2ccccc2)N2CCCCC2)cc1` was tested. Which pKi did it give?
Answer: 5.28

Question: `N[C@H](Cc1ccccn1)c1ccccc1` was tested. Which pKi did it give?
Answer: 4.08

Question: With `c1ccc(C[C@@H](c2ccccc2)N2CCCCC2)cc1` as the molecule, how does the pKi read?
Answer: 6.92

Question: How did the pKi turn out when `N[C@]1(c2ccccc2Cl)CCCCC1=O` was run?
Answer: 5.38

Question: How did the pKi turn out when `N[C@H](Cc1ccccc1)c1ccccc1` was run?
Answer: 4.60

Question: With `N[C@@H](c1ccccc1)[C@@H](N)c1ccccc1` as the molecule, how does the pKi read?
Answer: 4.29

Question: How did the pKi turn out when `N[C@@]1(c2ccccc2Cl)CCCCC1=O` was run?
Answer: 4.26

Question: `CN[C@@]1(c2ccccc2Cl)CCCCC1=O` was tested. Which pKi did it give?
Answer: 5.25

Question: How did the pKi turn out when `COC(=O)[C@@H](N)c1ccccc1` was run?
Answer: 2.70

Question: `COC(=O)[C@H](N)c1ccccc1` was tested. Which pKi did it give?
Answer: 2.86

Question: With `N[C@@H](CC1CCCCC1)C1CCCCC1` as the molecule, how does the pKi read?
Answer: 3.57

Question: `N[C@H]1C[C@@H]1c1ccccc1` [(+)-TRANYLCYPROMINE] was tested. Which pKi did it give?
Answer: 3.57

Question: With `NC(c1ccccc1)c1ccccc1` [AMINODIPHENYLMETHANE] as the molecule, how does the pKi read?
Answer: 4.19

Question: With `NCc1ccccc1` [BENZYLAMINE] as the molecule, how does the pKi read?
Answer: 2.97

Question: How did the pKi turn out when `C[C@H](N)Cc1ccccc1` [DEXTROAMPHETAMINE] was run?
Answer: 3.52

Question: `CN[C@]1(c2ccccc2Cl)CCCCC1=O` [ESKETAMINE] was tested. Which pKi did it give?
Answer: 6.02

Question: With `N[C@@H](Cc1ccccn1)c1ccccc1` [LANICEMINE] as the molecule, how does the pKi read?
Answer: 4.85

Question: With `C[C@@H](N)Cc1ccccc1` [LEVAMFETAMINE] as the molecule, how does the pKi read?
Answer: 3.20

Question: With `c1ccc(C2(N3CCCCC3)CCCCC2)cc1` [PHENCYCLIDINE] as the molecule, how does the pKi read?
Answer: 6.57

Question: How did the pKi turn out when `NCCc1ccccc1` [PHENETHYLAMINE] was run?
Answer: 3.12

Question: How did the pKi turn out when `N[C@@H]1C[C@H]1c1ccccc1.N[C@H]1C[C@@H]1c1ccccc1` [TRANYLCYPROMINE] was run?
Answer: 3.26
